A short description of data set [1]: Solubility of Lumogen F dyes in organic solvents (toluene). The class given is physicochemical. Conditions: organic solvent or mixture.
The nature of data set [2]: Methanol solubility of LR versus non-polar crude oil fractions. Format: physicochemical. Conditions: non-polar crude oil fractions showed poor MeOH solubility. From the text:
To enhance the detection sensitivity further for LR, the fluorescent non-polar fractions of crude oil coeluted with LR during the chromatography may be removed or partially removed from the resulting effluent mixtures. While the polar components of crude oil can be effectively separated using the gravity column chromatography over silica gel with 100% DCM, the separation of the non-polar crude oil components remains a challenge because of its similar polarity with LR, identified by the Rf value on TLC. Therefore, explored was the second step of purification and isolation of the product by utilizing the solubility difference between LR and the non-polar crude oil components. […] Therefore, in subsequent work, DCM from the resulting effluent was evaporated and then the dark viscous residues were re-dissolved in 1 mL of MeOH followed by sonication for 30 seconds.

For data set [3] the following is noted: cited from earlier work.

Converted amounts (≈) assume the structure as drawn.

The values that follow come from US12168929B2, “Quantifying zonal flow in multi-lateral wells via taggants of fluids” (Saudi Arabian Oil Company, priority 2023, dated 2024).

What is called solubility is the concentration that dissolves in the medium under given conditions.

With `CC(C)c1cccc(C(C)C)c1N1C(=O)c2cc(Oc3ccccc3)c3c4c(Oc5ccccc5)cc5c6c(cc(Oc7ccccc7)c(c7c(Oc8ccccc8)cc(c2c37)C1=O)c64)C(=O)N(c1c(C(C)C)cccc1C(C)C)C5=O` [LR, 7,18-bis[2,6-di(propan-2-yl)phenyl]-11,14,22,26-tetraphenoxy-7,18-diazaheptacyclo[14.6.2.2^2,5.0^3,12.0^4,9.0^13,23.0^20,24]hexacosa-1(22),2(26),3,5(25),9,11,13,15,20,23-decaene-6,8,17,19-tetrone], the solubility in data set [1] worked out at 80000 µg/mL (≈ 74.1 mM). Besides, the “solubility in methanol (MeOH)” value in data set [2] is “moderately soluble”.
With `CCCCC(CC)CN1C(=O)c2ccc(OC)c3c(OC)ccc(c23)C1=O` (centres unmarked) [LV, 2-(2-ethylhexyl)-6,7-dimethoxybenzo[de]isoquinoline-1,3-dione], the solubility in data set [1] is 10000 µg/mL (≈ 27.1 mM).
Take `CC(C)COC(=O)c1ccc2c3ccc(C#N)c4c(C(=O)OCC(C)C)ccc(c5ccc(C#N)c1c52)c43` [LY, bis(2-methylpropyl) 4,10-dicyanoperylene-3,9-dicarboxylate]: the solubility in data set [1] was below 1000 µg/mL.
In the case of `CC[N+](CC)=c1ccc2nc3c(cc(N)c4ccccc43)oc-2c1` [NB, Nile Blue], the “solubility in organic solvents” value in data set [3] was “relatively low”. For the same compound, the solubility in water result in data set [3] (water) is “highly soluble”.
Consider `CCN(CC)c1ccc2nc3c4ccccc4c(=O)cc-3oc2c1` [NR, Nile Red], for which the “solubility in organic solvents such as DCM and toluene” value in data set [3] (DCM, toluene) is on record as “highly soluble”.
On to `COc1cc(/C=C/C(=O)CC(=O)/C=C/c2ccc(O)c(OC)c2)ccc1O` [curcumin], for which the “solubility in organic solvents” value in data set [3] is listed as “soluble”.
